Test results taken from patent US9499551B2, “Substituted pyrrolo[2,3-b]pyridines for treating cancer or inflammatory diseases” (Confluence Life Sciences, Inc., priority 2014, dated 2016).

Tests used:
TAK1-TAB1 = target: T1, TAK1-TAB1 (Homo sapiens, UniProt O43318); assay: TAK1-TAB1 binding inhibitory potency (LanthaScreen competitive binding assay, kinase tracer-236); settings: 10 nM TAK1-TAB1, 100 nM kinase tracer-236; read-out: TAK1-Tab Inhibition IC50
T1 sequence (O43318 with tags, fused parts or gaps limits assumed): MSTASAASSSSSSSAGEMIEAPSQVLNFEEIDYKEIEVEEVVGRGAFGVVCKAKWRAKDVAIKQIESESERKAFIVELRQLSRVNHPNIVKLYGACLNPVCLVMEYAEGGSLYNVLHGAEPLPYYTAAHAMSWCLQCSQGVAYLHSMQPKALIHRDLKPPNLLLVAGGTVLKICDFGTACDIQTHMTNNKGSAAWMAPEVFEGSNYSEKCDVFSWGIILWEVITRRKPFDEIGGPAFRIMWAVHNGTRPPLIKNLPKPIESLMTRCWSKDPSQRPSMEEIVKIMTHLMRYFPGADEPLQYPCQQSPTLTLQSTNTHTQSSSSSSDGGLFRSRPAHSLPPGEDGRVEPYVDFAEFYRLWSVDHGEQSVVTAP
Text: TAK1-TAB1 Binding Inhibitory Potency:
The ability of candidate compounds to interact with TAK1-TAB1 is quantitated by a competitive binding assay using the LanthaScreen technology developed by Life Technologies. This assay is based on the binding of a proprietary, Alexa Fluor® 647-labeled, ATP-competitive kinase inhibitor (kinase tracer-236) to the TAK1-TAB1 construct in presence of a europium-conjugated antibody, resulting in a FRET (fluorescence resonance energy transfer) signal. Displacement of the kinase tracer by compound results in a lower emission ratio upon excitation of the europium chelate. Candidate compounds are designed as potential irreversible inhibitors of TAK1-TAB1, capable of ligating to an active site cysteine residue. The time dependent nature of irreversible inhibition is investigated by performing the binding assay with and without a pre-incubation of compound and TAK1-TAB1.
The inhibitory potency of candidate compounds is measured in 20 mM HEPES pH 7.5, 10 mM MgCl2, 0.01% BSA, 0.0005% Tween-20, and 2% DMSO in the presence of 10 nM TAK1-TAB1, 2 nM Eu-anti-his antibody, and 100 nM kinase tracer-236 using a 384-well plate format. Background signal is defined in the absence of TAK1-TAB1 and uninhibited signal is defined in the presence of vehicle (2% DMSO) alone. Compounds were evaluated in an 11 point dose-response ranging from 20 μM to 0.34 nM. The binding assays are performed under two conditions to evaluate time dependence of inhibition. For the pre-incubation assay, TAK1-TAB1 and Eu-anti-his antibody are preincubated with compound or vehicle for two hours prior to the addition of kinase tracer. The non-preincubated assay is run in which TAK1-TAB1 and Eu-anti-his antibody are added to a mixture of compound and kinase tracer. IC50 values of compounds are determined using a 4 parameter logistical fit of emission ratio as a function of the concentration of compound. […]

[1] = system: IL-6 Production in Human Peripheral Blood Mononuclear Cells (PBMC); assay: LPS stimulated IL-6 production in PBMC cells; format: cell-based; settings: read-out: IL-6 Production Inhibition IC50
Procedure: LPS Stimulated IL-6 Production in PBMC Cells:
Lipopolysaccharide (LPS) stimulated IL-6 Production in Human Peripheral Blood Mononuclear Cells (PBMC): The cellular efficacy of compound candidates is determined using peripheral blood mononuclear cells purified from human whole blood, based upon the methods of Burnette et al. (2009) Pharmacology, 84:42-60. PBMC produce a number of cytokines (IL6, IL8, IL1β and TNFα) in response to stimulation with LPS. To induce the production of inflammatory mediators, PBMC are plated at a final concentration of 2×10^5 cells/well in a 96 well flat bottom plate in DMEM medium supplemented with 10% fetal bovine serum, 100 units/ml penicillin and 100 μg/ml streptomycin (Gibco BRL Life Technologies). Cells are treated with or without inhibitors for 1-3 hrs then stimulated with 100 ng/ml LPS (serotype 011:B4, Sigma) for an additional 3 hrs at 37° C. with 5% CO2. The supernatants are removed and stored at −20° C. until they are to be assayed. The levels of inflammatory mediators are determined using commercial MSD cytokine kits (Meso Scale Discovery) as per the manufacturer's instructions. Standard curves are based on 7 steps of 4× serial dilutions, with a wide dynamic range of 10000 pg/ml to 2.4 pg/ml, and a blank. Lower limit of detection (LLOD) is calculated at the commonly used 3× the standard deviation of the blank.

Row | SMILES | IC50 (TAK1-TAB1) [nM] | IC50 [1] [nM]
1 | CS(=O)(=O)c1ccc(-c2cnc3[nH]cc(/C=C/C(N)=O)c3c2)cc1 [Example 23, (E)-3-(5-(4-(methylsulfonyl)phenyl)-1H-pyrrolo[2,3-b]pyridin-3-yl)acrylamide] | ≤ 1000 | > 1000
2 | CC(C)(C)C(=O)NC1CN(c2cnc3[nH]cc(/C=C/C(N)=O)c3c2)C1 [Example 282, (E)-3-(5-(3-pivalamidoazetidin-1-yl)-1H-pyrrolo[2,3-b]pyridin-3-yl)acrylamide] | > 1000 | > 1000
3 | NC(=O)/C=C/c1c[nH]c2ncc(-c3ccc(F)cc3F)cc12 [Example 2, (E)-3-(5-(2,4-Difluorophenyl)-1H-pyrrolo[2,3-b]pyridin-3-yl)acrylamide] | ≤ 1000 | ≤ 1000
4 | CC(=O)c1ccc(-c2cnc3[nH]cc(/C=C/C(N)=O)c3c2)cc1 [Example 245, (E)-3-(5-(4-acetylphenyl)-1H-pyrrolo[2,3-b]pyridin-3-yl)acrylamide] | ≤ 1000 | ≤ 1000
5 | CC(C)(O)c1ccc(-c2cnc3[nH]cc(/C=C/C(N)=O)c3c2)cc1 [Example 247, (E)-3-(5-(4-(2-hydroxypropan-2-yl)phenyl)-1H-pyrrolo[2,3-b]pyridin-3-yl)acrylamide] | ≤ 1000 | ≤ 1000
6 | CC(C)Oc1cc(-c2cnc3[nH]cc(/C=C/C(N)=O)c3c2)cc(C(F)(F)F)n1 [Example 272, (E)-3-(5-(2-isopropoxy-6-(trifluoromethyl)pyridin-4-yl)-1H-pyrrolo[2,3-b]pyridin-3-yl)acrylamide] | ≤ 1000 | ≤ 1000
7 | N#C/C(=C\c1c[nH]c2ncc(-c3ccccc3)cc12)C(N)=O [Example 226, (E)-2-Cyano-3-(5-phenyl-1H-pyrrolo[2,3-b]pyridin-3-yl)acrylamide] | ≤ 1000 | ≤ 1000
8 | COc1cc(OC2CCCC2)cc(-c2cnc3[nH]cc(/C=C/C(N)=O)c3c2)c1 [Example 257, (E)-3-(5-(3-(cyclopentyloxy)-5-methoxyphenyl)-1H-pyrrolo[2,3-b]pyridin-3-yl)acrylamide] | ≤ 1000 | ≤ 1000
9 | CC(C)Nc1cnc2[nH]cc(/C=C/C(N)=O)c2n1 [Example 10, 3-(2-Isopropylamino-5H-pyrrolo[2,3-b]pyrazin-7-yl)-acrylamide] | ≤ 1000 | ≤ 1000
10 | NC(=O)/C=C/c1c[nH]c2ncc(Cc3ccc(F)cc3)cc12 [Example 274, (E)-3-(5-(4-fluorobenzyl)-1H-pyrrolo[2,3-b]pyridin-3-yl)acrylamide] | ≤ 1000 | ≤ 1000
11 | CC(C)(O)CN1CCN(c2cnc3[nH]cc(/C=C/C(N)=O)c3c2)CC1 [Example 289, (E)-3-(5-(4-(2-hydroxy-2-methylpropyl)piperazin-1-yl)-1H-pyrrolo[2,3-b]pyridin-3-yl)acrylamide] | ≤ 1000 | > 1000
12 | CC(=O)O[C@@H](C)CNC(=O)c1ccc(-c2cnc3[nH]cc(/C=C/C(N)=O)c3c2)cc1 [Example 293, (S,E)-1-(4-(3-(3-amino-3-oxoprop-1-en-1-yl)-1H-pyrrolo[2,3-b]pyridin-5-yl)benzamido) propan-2-yl acetate] | ≤ 1000 | > 1000
13 | CC(C)(C)C(=O)N1CCN(c2cnc3[nH]cc(/C=C/C(N)=O)c3c2)CC1 [Example 264, (E)-3-(5-(4-pivaloylpiperazin-1-yl)-1H-pyrrolo[2,3-b]pyridin-3-yl)acrylamide] | ≤ 1000 | ≤ 1000
14 | NC(=O)/C=C/c1c[nH]c2ncc(-c3ccncc3)cc12 [Example 259, (E)-3-(5-(pyridin-4-yl)-1H-pyrrolo[2,3-b]pyridin-3-yl)acrylamide] | ≤ 1000 | ≤ 1000
15 | CC(C)(C)OC(=O)NC1CN(c2cnc3[nH]cc(/C=C/C(N)=O)c3c2)C1 [Example 269, (E)-tert-butyl(1-(3-(3-amino-3-oxoprop-1-en-1-yl)-1H-pyrrolo[2,3-b]pyridin-5-yl)azetidin-3-yl)carbamate] | ≤ 1000 | ≤ 1000
16 | CC(C)(O)Cn1cc(-c2cnc3[nH]cc(/C=C/C(N)=O)c3c2)ccc1=O [Example 292, (E) -3-(5-(1-(2-hydroxy-2-methylpropyl)-6-oxo-1,6-dihydropyridin-3-yl)-1H-pyrrolo[2,3-b]pyridin-3-yl)acrylamide] | ≤ 1000 | > 1000
17 | N#Cc1ccc(-c2cnc3[nH]cc(/C=C/C(N)=O)c3c2)cc1 [Example 17, 3-[5-(4-Cyano-phenyl)-1H-pyrrolo[2,3-b]pyridin-3-yl]-acrylamide] | ≤ 1000 | ≤ 1000
18 | CC(C)(O)COc1ccc(-c2cnc3[nH]cc(/C=C/C(N)=O)c3c2)cc1 [Example 32, (E)-3-(5-(4-(2-hydroxy-2-methylpropoxy)phenyl)-1H-pyrrolo[2,3-b]pyridin-3-yl)acrylamide] | ≤ 1000 | ≤ 1000
19 | CSc1ncc(-c2cnc3[nH]cc(/C=C/C(N)=O)c3c2)cn1 [Example 287, (E)-3-(5-(2-(methylthio)pyrimidin-5-yl)-1H-pyrrolo[2,3-b]pyridin-3-yl)acrylamide] | ≤ 1000 | ≤ 1000
20 | C[C@@H](O)C(=O)N1CCN(c2cnc3[nH]cc(/C=C/C(N)=O)c3c2)CC1 [Example 277, (R,E)-3-(5-(4-(2-hydroxypropanoyl)piperazin-1-yl)-1H-pyrrolo[2,3-b]pyridine-3-yl)acrylamide] | ≤ 1000 | > 1000
21 | NC(=O)/C=C/c1c[nH]c2ncc(-c3ccccc3)cc12 [Example 1, 3-(5-Phenyl-1H-pyrrolo[2,3-b]pyridin-3-yl)-acrylamide] | ≤ 1000 | ≤ 1000
22 | NC(=O)/C=C/c1c[nH]c2ncc(Cc3ccc(F)cc3F)cc12 [Example 275, (E)-3-(5-(2,4-difluorobenzyl)-1H-pyrrolo[2,3-b]pyridin-3-yl)acrylamide] | ≤ 1000 | ≤ 1000
23 | NC(=O)/C=C/c1c[nH]c2ncc(-c3cccnc3)cc12 [Example 13, 3-(5-Pyridin-3-yl-1H-pyrrolo[2,3-b]pyridin-3-yl)-acrylamide] | ≤ 1000 | ≤ 1000
24 | COCCN(C)C(=O)c1cnc2[nH]cc(/C=C/C(N)=O)c2c1 [Example 357, (E)-3-(3-amino-3-oxoprop-1-en-1-yl)-N-(2-methoxyethyl)-N-methyl-1H-pyrrolo[2,3-b]pyridine-5-carboxamide] | ≤ 1000 | –
25 | NC(=O)/C=C/c1c[nH]c2ncc(-c3cc(Cl)nc(C(F)(F)F)c3)cc12 [Example 350, (E)-3-(5-(2-chloro-6-(trifluoromethyl)pyridin-4-yl)-1H-pyrrolo[2,3-b]pyridin-3-yl)acrylamide] | ≤ 1000 | –
26 | NC(=O)/C=C/c1c[nH]c2ncc(-c3ccc(N4CCCCC4)nc3)cc12 [Example 363, (E)-3-(5-(6-(piperidin-1-yl)pyridin-3-yl)-1H-pyrrolo [2,3-b]pyridin-3-yl)acrylamide] | ≤ 1000 | –
27 | CCC(=O)c1ccc(-c2cnc3[nH]cc(/C=C/C(N)=O)c3c2)c(C)c1 [Example 313, (E)-3-(5-(2-methyl-4-propionylphenyl)-1H-pyrrolo[2,3-b]pyridin-3-yl)acrylamide] | ≤ 1000 | –
28 | CC(C)c1ccccc1-c1cnc2[nH]cc(/C=C/C(N)=O)c2n1 [Example 359] | ≤ 1000 | –
